From US20260374766A1, “METHODS FOR TREATING CANCER” (Antares Therapeutics, Inc., priority 2022, published 2026)
pIC50, pKd: −log10 of the molar value. Structures can show the parent of a compound that is named as a salt. Where two headings read alike, the source gives them in different places.

Tests used:
[1] = molecular target: T1, p53 Y220C mutant protein (amino acid residues 94-293) (Homo sapiens, UniProt P04637, Y220C); experiment: Surface Plasmon Resonance (SPR) assay, Kd_kinetic; assay type: binding; settings: read-out: SPR P53 Y220C KD kinetic
T1 construct: p53 Y220C mutant protein (amino acid residues 94-293)
Method in brief: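 Kinetic dissociation constants derived by 1:1 model fit of SPR data acquired at 16 or 20 °C, pH 7.5 Tris/NaCl running buffer with 1% DMSO.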

[2] = system: H1299 p53 Y220C; experiment: Cell Proliferation Assay (CellTiter-Glo, CTG), H1299 p53 Y220C (NClH1299-inducible p53 Y220C); assay type: cell-based; settings: Homo sapiens, NCI-H1299, 120 h, 5 days, CellTiter-Glo
Method in brief: (§1)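 Tet-One inducible p53 Y220C or R273H constructs were stably introduced into NCI-H1299 by lentiviral transduction; NUGC3 was used as is. Cells (250-500 per well) were exposed to compound for 5 days, then CellTiter-Glo was added for 10 min at room temperature and IC50 was calculated from luminescence.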

[3] = molecular target: p53 Y220C (Homo sapiens, UniProt P04637, Y220C); experiment: Luciferase Reporter Assay (Luc), p53 response element, NClH1299 cells with inducible p53 Y220C; assay type: cell-based; settings: luciferase reporter, NClH1299 inducible p53 Y220C, 6 hour; for AC50: read-out: Luc P53 Y220C AC50
Method in brief: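 Cells were seeded at 5,000 per well and induced with 0.5 ug/mL doxycycline for 24 hours, then exposed to compound for 6 hours. One-Glo reagent was added, plates shaken 5 minutes at room temperature, and luminescence read immediately.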

[4] = system: NUGC3 p53 Y220C; experiment: Cell Proliferation Assay (CellTiter-Glo, CTG), NUGC3 p53 Y220C; assay type: cell-based; settings: Homo sapiens, NUGC-3, 120 h, 5 days, CellTiter-Glo
Method in brief: as §1

[5] = system: H1299 p53 R273H; experiment: Cell Proliferation Assay (CellTiter-Glo, CTG), H1299 p53 R273H (NClH1299-inducible p53 R273H); assay type: cell-based; settings: Homo sapiens, NCI-H1299, 120 h, 5 days, CellTiter-Glo
Method in brief: as §1

[6] = molecular target: T1, p53 Y220C mutant protein (amino acid residues 94-293); experiment: Thermal Shift Assay (TSA), dTM; assay type: binding; settings: for ΔTm at 10 µM: 10 uM compound; for ΔTm at 100 µM: 100 uM compound
Procedure: Thermal Shift Assay (TSA) Protocol
5 μM recombinant p53 Y220C mutant protein (amino acid residues 94-293) was incubated with 10 μM or 100 μM compound for 3 hours at 20 °C in buffer containing 20 mM HEPES, pH7.4, 100 mM NaCl, 0.01% Pluronic F-127, and 1% DMSO in the presence of 400-fold diluted Sypro Orange (ThermoFisher Scientific catalog number 4461146), on a 384-well PCR plate (Applied Biosystems catalog number 4483285). The volume was 5 μL/well. The sealed plate was then loaded onto a QuantStudio 7 Flex instrument for melting temperature (TM) measurement. The temperature was increased from 30 °C to […], at a rate of 0.03 °C/second. Data were fit into a Boltzmann two-state model to determine the TM.

[7] = NClH1299-inducible p53 Y220C cells
[8] = NClH1299-inducible p53 R273H cells
[9] = p53 Y220C, read-out: TSA P53 Y220C dTM
[10] = 10 uM tool compound as positive control
[11] = thermal shift, read-out: TSA P53 Y220C dTM (10 uM)
[12] = thermal shift, read-out: TSA P53 Y220C dTM (100 uM)

Row | Compound | pKd ([1]; SPR, p53 Y220C) | pIC50 [2, 7] | AC50 ([3]; AC50) | Emax ([3]; Emax) | pIC50 [5, 8] | ΔTm at 10 µM [6, 9] | pKd [1] | pIC50 ([2]; H1299 p53 Y220C) | Emax [3, 10] | AC50 [3] | pIC50 ([5]; H1299 p53 R273H) | ΔTm at 10 µM [6, 11] | ΔTm at 100 µM [6, 12] | pKd ([1]; SPR, kinetic KD, p53 Y220C) | ΔTm at 100 µM [6, 9] | pIC50 ([4]; NUGC3 cells) | pIC50 ([4]; NUGC3 p53 Y220C)
1 | COC[C@H](O)CN1CCC(Nc2cccn3c(CC(F)(F)F)c(C#CCNc4ccc(S(C)(=O)=O)cc4OC)nc23)CC1 [Example 14, (2R)-1-{4-[(2-{3-[(4-methanesulfonyl-2-methoxyphenyl)amino]prop-1-yn-1-yl}-3-(2,2,2-trifluoroethyl)imidazo[1,2-a]pyridin-8-yl)amino]piperidin-1-yl}-3-methoxypropan-2-ol] |  |  |  |  |  |  |  | 5.82 to 6.12 | 70 to 80% | 1.5 to 3 µM | 5.10 to 5.30 |  | ≥ 10 °C | 7.00 to 8.00 |  |  | 5.82 to 6.12
2 | CCNC(=O)c1cnc(OC)c(NCC#Cc2cc3c(N[C@@H]4CCN(C)C[C@@H]4F)nccn3c2SC(F)(F)F)c1 [Example 291] | > 8.00 | > 6.12 | < 0.75 µM | > 90% | ≤ 5.00 | ≥ 10 °C |  |  |  |  |  |  |  |  | ≥ 10 °C | > 6.12 | 
3 | CNC(=O)c1ccc(OC)c(NCC#Cc2nc3c(N[C@H]4C[C@@H]5CC[C@H]([C@H]4F)N5C)cccn3c2SC(F)(F)F)c1 [Example 200] |  |  |  |  |  |  |  | > 6.12 | 70 to 80% | < 0.75 µM | ≤ 5.00 | ≥ 10 °C | ≥ 10 °C | > 8.00 |  |  | > 6.12
4 | CCOc1c(C#CCNc2ccc(C(=O)NC)cc2OC)nc2c(N[C@@H]3CCN(C)C[C@@H]3F)cccn12 [Example 17, 4-{[3-(3-ethoxy-8-{[(3S,4R)-3-fluoro-1-methylpiperidin-4-yl]amino}imidazo[1,2-a]pyridin-2-yl)prop-2-yn-1-yl]amino}-3-methoxy-N-methylbenzamide] |  |  |  |  |  |  |  | < 5.52 | < 70% | > 3 µM | ≤ 5.00 |  | 1 to 5 °C | 6.00 to 7.00 |  |  | < 5.52
5 | CCc1c(C#CCNc2ccc(S(C)(=O)=O)cc2OC)nc2c(NC3CCN(C)CC3)cccn12 [Example 16, N-(3-ethyl-2-{3-[(4-methanesulfonyl-2-methoxyphenyl)amino]prop-1-yn-1-yl}imidazo[1,2-a]pyridin-8-yl)-1-methylpiperidin-4-amine] |  |  |  |  |  |  |  | < 5.52 | < 70% | > 3 µM | 5.10 to 5.30 |  | 5 to 10 °C | 7.00 to 8.00 |  |  | < 5.52
6 | C=C(C)C(=O)Nc1cc(NC2CCN(C)CC2)c2nc(C#CCNc3ccc(C(=O)NC)cc3OC)c(CC(F)(F)F)n2c1 [Example 13, 3-methoxy-N-methyl-4-[(3-{8-[(1-methylpiperidin-4-yl)amino]-6-(2-methylprop-2-enamido)-3-(2,2,2-trifluoroethyl)imidazo[1,2-a]pyridin-2-yl}prop-2-yn-1-yl)amino]benzamide, formic acid salt] |  |  |  |  |  |  |  | < 5.52 | < 70% |  | ≤ 5.00 |  | 1 to 5 °C |  |  |  | < 5.52
7 | C=C(F)C(=O)Nc1cc(NC2CCN(C)CC2)c2nc(C#CCNc3ccc(C(=O)NC)cc3OC)c(CC(F)(F)F)n2c1 [Example 90, 4-({3-[6-(2-fluoroprop-2-enamido)-8-[(1-methylpiperidin-4-yl)amino]-3-(2,2,2-trifluoroethyl)imidazo[1,2-a]pyridin-2-yl]prop-2-yn-1-yl}amino)-3-methoxy-N-methylbenzamide] |  |  |  |  |  |  |  | < 5.52 | < 70% | > 3 µM | ≤ 5.00 |  | 1 to 5 °C |  |  |  | < 5.52

More lines, main results first:

Row | pKd ([1]; SPR, p53 Y220C) | pIC50 [2, 7] | AC50 ([3]; AC50) | Emax ([3]; Emax) | pIC50 [5, 8] | ΔTm at 10 µM [6, 9] | pKd [1] | pIC50 ([2]; H1299 p53 Y220C) | Emax [3, 10] | AC50 [3] | pIC50 ([5]; H1299 p53 R273H) | ΔTm at 10 µM [6, 11] | ΔTm at 100 µM [6, 12] | pKd ([1]; SPR, kinetic KD, p53 Y220C) | ΔTm at 100 µM [6, 9] | Compound | pIC50 ([4]; NUGC3 cells) | pIC50 ([4]; NUGC3 p53 Y220C)
8 | > 8.00 | > 6.12 | < 0.75 µM | 70 to 80% | > 5.30 | ≥ 10 °C |  |  |  |  |  |  |  |  |  | CCNC(=O)c1ccc(OC)c(NCC#Cc2nc3c(N[C@@H]4CCN(C)C[C@@H]4F)nccn3c2SC(F)(F)F)c1 [Example 309] | > 6.12 | 
9 |  |  |  |  |  |  | > 8.00 | > 6.12 | 80 to 90% | < 0.75 µM | 5.10 to 5.30 | ≥ 10 °C | ≥ 10 °C |  |  | CNC(=O)c1ccc(OC)c(NCC#Cc2nc3c(N[C@@H]4CCN(C)C[C@@H]4F)cccn3c2SC(F)(F)F)n1 [Example 158] |  | > 6.12
10 |  |  |  |  |  |  |  | > 6.12 | 80 to 90% | < 0.75 µM | > 5.30 | ≥ 10 °C |  | > 8.00 |  | COc1ncc(C(N)=O)cc1NCC#Cc1nc2c(N[C@@H]3CCN(C)C[C@@H]3F)cccn2c1SC(F)(F)F [Example 140] |  | > 6.12
11 |  |  |  |  |  |  |  | > 6.12 | > 90% | < 0.75 µM | ≤ 5.00 | ≥ 10 °C | ≥ 10 °C | > 8.00 |  | CNC(=O)c1ccc(NCC#Cc2nc3c(N[C@@H]4CCN(C)C[C@@H]4F)cccn3c2SC(F)(F)F)cn1 [Example 94, 5-{[3-(8-{[(3S,4R)-3-fluoro-1-methylpiperidin-4-yl]amino}-3-[(trifluoromethyl)sulfanyl]imidazo[1,2-a]pyridin-2-yl)prop-2-yn-1-yl]amino}-N-methylpyridine-2-carboxamide] |  | > 6.12
12 |  |  |  |  |  |  |  | > 6.12 | 80 to 90% | < 0.75 µM | 5.00 to 5.10 |  | ≥ 10 °C | > 8.00 |  | COc1cc(C(=O)NC(C)C)ccc1NCC#Cc1nc2c(N[C@@H]3CCN(C)C[C@@H]3F)cccn2c1SC(F)(F)F [Example 89, 4-{[3-(8-{[(3S,4R)-3-fluoro-1-methylpiperidin-4-yl]amino}-3-[(trifluoromethyl)sulfanyl]imidazo[1,2-a]pyridin-2-yl)prop-2-yn-1-yl]amino}-N-isopropyl-3-methoxybenzamide] |  | > 6.12
13 |  |  |  |  |  |  |  | > 6.12 | > 90% | < 0.75 µM | ≤ 5.00 | ≥ 10 °C | ≥ 10 °C | > 8.00 |  | CNC(=O)c1ccc(NCC#Cc2nc3c(N[C@@H]4CCN(C)C[C@@H]4F)nccn3c2SC(F)(F)F)c(OC)c1 [Example 206, 4-{[3-(8-{[(3S,4R)-3-fluoro-1-methylpiperidin-4-yl]amino}-3-[(trifluoromethyl)sulfanyl]imidazo[1,2-a]pyrazin-2-yl)prop-2-yn-1-yl]amino}-3-methoxy-N-methylbenzamide] |  | > 6.12
